The subject of data set [1] is human hematopoietic stem cells. Description: Culture of human hematopoietic stem cells with AKTa or PI3Ka. The format is cell-based. Particulars: 0.3 μM AKTa or 20 μM PI3Ka; PVA, no albumin, SCF 10 ng/mL, TPO 100 ng/mL. The protocol:
Then, human hematopoietic stem cells were cultured in a culture medium supplemented with 0.3 μM AKTa (Sigma-Aldrich, product No. 123871) or 20 μM PI3Ka. Cells were counted after 3, 5, and 7 days of incubation, and the relative cell count at each time point was calculated while the cell count on the first day of incubation was set to 1. In the following Examples, 740Y-P (Provider name: Tocris, product No. 1983) was used as PI3Ka.

For data set [2], the system named is Bone marrow cell samples from CML (chronic myelogenous leukemia) patients. The experiment in a line: Culture of chronic myelogenous leukemia (CML) cells with or without imatinib. In kind it is cell-based, human. Particulars: one week; 0.1% PVA, 20 μM PI3Ka, 0.1 μM TPOago. As for the experimental part: Bone marrow cell samples from CML (chronic myelogenous leukemia) patients were each cultured for one week under albumin-free and cytokine-free culture conditions. The culture medium used was a basal medium containing 0.1% PVA, 20 μM PI3Ka, and 0.1 μM TPOago. The culturing was performed in the presence or absence of an inhibitor (imatinib (IM)) of Bcr-Abl, the gene responsible for CML.

In data set [3] the test system is human bone marrow CD34+ cells or cord blood CD34+ cells. The experiment in a line: 14-day culture in PI3Ka and TPOago medium with SR-1 and/or UM171. The format is cell-based. As for the experimental part: Prepared was the above culture medium for human hematopoietic stem cells, which medium contained 20 μM PI3Ka and 0.1 μM TPOago instead of SCF and TPO (PI3Ka20μM+TPOago0.1 μM), or which medium contained SR-1 (500 nM) and/or UM171 (35 nM) (+SR-1, +UM171, or +SR-1+UM171). […] The total cell count and the CD34^+ cell count were determined as above on day 14 after the start of culture, and the growth rate relative to that at the start of culture was determined.
Prepared was the above culture medium for human hematopoietic stem cells, which medium contained 20 μM PI3Ka and 0.1 μM TPOago instead of SCF and TPO (PI3Ka20μM+TPO0.1μM), or which medium contained SR-1 (500nM) and/or UM171 (35 nM) (+SR-1, +UM171, or +SR-1+UM171). […] The total cell count and the CD34^+ cell count were determined as above on day 14 after the start of culture, and the growth rate relative to that at the start of culture was determined.

Data set [4] has as its system CD34+ cells. The experiment in a line: 14-day culture of CD34+ cells under conditions 1 to 3. In kind it is cell-based, human. The protocol: Further, the growth rate of the total cell count or the CD34^+ cell count was determined by culturing the CD34^+ cells under three conditions: condition 1: cultured for 14 days in the culture medium for human hematopoietic stem cells above, which medium contained 20 μM PI3Ka and 0.1 μM TPOago instead of SCF and TPO (PI3Ka20μM+TPOago0.1μM), condition 2: at day 7 or later, cultured in a medium without butyzamide (Day7—no Buty), and condition 3: cultured for 14 days in a medium (PI3Ka20μM+TPOago0.1μM) further containing UM171 (+UM171). The CD41^+ cell count was determined using a flow cytometer.

Data set [5] deals with Mp132D cells. Description: Replacement of TPO by TPO receptor agonists, Mp132D cells. Particulars: 0.1 μM butyzamide, 3 μg/mL eltrombopag, 3 μM avatrombopag; for proliferation in the absence of TPO: in the presence of 0.1% recombinant human serum albumin; for cell proliferative effect in the absence of TPO: in the presence of PVA, absence of albumin. In kind it is cell-based, human. The protocol:
Next, human hematopoietic stem cells were cultured to examine whether TPO could be replaced by a TPO receptor agonist. Examples of the known TPO receptor agonist include butyzamide, eltrombopag, or avatrombopag. Human hematopoietic stem cells were cultured in a medium containing 0.1 μM butyzamide, 3 μg/mL eltrombopag, or 3 μM avatrombopag in the presence of 0.1% recombinant human serum albumin (Albumin Biosciences) or in the presence of PVA in the above culture medium without TPO. In this experiment, Mp132D cells were used as human hematopoietic stem cells.
Next, human hematopoietic stem cells were cultured to examine whether TPO could be replaced by a TPO receptor agonist. Examples of the known TPO receptor agonists include butyzamide, eltrombopag, or avatrombopag. Human hematopoietic stem cells were cultured in a medium containing 0.1 μM butyzamide, 3 μg/mL eltrombopag, or 3 μM avatrombopag in the presence of 0.1% recombinant human serum albumin (Albumin Biosciences) or in the presence of PVA in the above culture medium without TPO. In this experiment, Mp132D cells were used as human hematopoietic stem cells.

Data set [6] concerns human bone marrow CD34+ cells or cord blood CD34+ cells. Conditions: absence of albumin, presence of PVA; TPO replaced by agonist. As for the experimental part: In addition, purchased human bone marrow CD34^+ cells (provider name: Lonza, product No. 2C-101) or CD34^+ cells isolated using microbeads from given fresh cord blood were used for culture experiments. the experiments were performed in 24-well plates at 0.2 to 1.0×10^5 cells per well, with TPO removed from the culture medium for human hematopoietic stem cells and replaced by one of the above TPO receptor agonists (hereinafter, sometimes referred to as “TPOago”). The cell count on the seventh day of culture relative to the cell count on the first day of culture was determined.
In addition, purchased human bone marrow CD34^+ cells (provider name: Lonza, product No. 2C-101) or CD34^+ cells isolated using microbeads from given fresh cord blood were used for culture experiments. Experiments were performed in 24-well plates with 0.2 to 1.0×10^5 cells per well, with TPO removed from the culture medium for human hematopoietic stem cells and replaced by one of the above TPO receptor agonists (hereinafter, sometimes referred to as “TPOago”). The cell count on the seventh day of culture relative to the cell count on the first day of culture was determined.

The test system is the same in data set [7]. Description: Culture with PI3Ka and TPO or butyzamide, growth rate at day 7. In kind it is cell-based. Particulars: 20 μM PI3Ka, 0.1 μM butyzamide vs TPO 100 ng/mL, PVA, no albumin. The protocol: (§1) In the following Examples, butyzamide was used as a TPO receptor agonist. […] After 7 days, the total number of cells was determined and the number of CD34^+ cells was determined by flow cytometry. Thereafter, the growth rate compared to that at the beginning of the incubation was determined. […] In addition, CD34^+ cells were sorted before and after incubation by using a cell sorter, and 100 cells were seeded into Methocult H4415 for colony assay. After two weeks, each colony was picked under a microscope, a cytospin sample was prepared, and the sample was subjected to Giemsa staining. The type of the colony was then identified under a microscope. GEmM colonies per 50 CD34^+ cells were counted and a rate of increase in the number of colonies compared to before the culture was determined.

Data set [8] relates to CD34+ cells. The experiment in a line: GEmM colony assay (Methocult H4415) after culture with PI3Ka and TPO or butyzamide. The format is cell-based, human. Conditions: GEmM colonies per 50 CD34+ cells; after 7-day culture; 0.1 μM butyzamide vs TPO. As for the experimental part: as §1
Data set [9] relates to human hematopoietic stem cells. Description: Culture with PI3Ka and/or TPOago in medium without SCF or TPO. The format is cell-based. Conditions: day 7; 20 μM PI3Ka and/or 0.1 μM TPOago; no SCF, no TPO; PVA. As for the experimental part: Next, human hematopoietic stem cells were cultured in a medium containing 20 μM PI3Ka and/or 0.1 μM TPOago with reference to a culture medium without SCF or TPO. On day 7 of culture, the number of total cells and the number of CD34^+ cells included were counted by flow cytometry, and the growth rate relative to that at the start of culture was determined.

The subject of data set [10] is human hematopoietic stem cells. The experiment in a line: Replacement of SCF by PI3Ka, 7-day culture. In kind it is cell-based. Particulars: day 7; 20 μM PI3Ka, TPO 100 ng/mL, PVA, no albumin. The protocol: Next, human hematopoietic stem cells were cultured to examine whether PI3Ka could completely replace SCF. Human hematopoietic stem cells were cultured for 7 days in the above culture medium for human hematopoietic stem cells with 20 μM PI3Ka (S10+PI3Ka20+T100) or in the above culture medium with 20 μM PI3Ka but without SCF (PI3Ka20+T100). The total number of cells and the number of isolated CD34^+ cells as obtained by cell sorting using an anti-CD34 antibody were then determined.

[11] abbreviates: day 14, condition 2 compared to condition 1, condition 3 (+UM171) compared to condition 1 or 2.

As for `CCOC(=O)C1=C(N)Oc2ccc(Cl)cc2C1C(C#N)C(=O)OCC` (stereo not drawn) [AKTa], the “relative cell count (proliferation) after 3, 5 and 7 days” value in data set [1] is “no proliferative effect”.
On to `Cc1ccc(NC(=O)c2ccc(CN3CCN(C)CC3)cc2)cc1Nc1nccc(-c2cccnc2)n1` [IM, imatinib], for which the “cell expansion in the presence of IM” value in data set [2] was “no significant cell expansion”.
For `CC(C)n1cnc2c(NCCc3ccc(O)cc3)nc(-c3csc4ccccc34)nc21` [SR-1], in data set [3] (SR-1 500 nM in PI3Ka20μM+TPOago0.1μM medium, PVA, no albumin), the cell death result was “caused cell death”.
Consider `Cn1nnc(-c2ccc3c(c2)[nH]c2nc(Cc4ccccc4)nc(NC4CCC(N)CC4)c23)n1` (stereo not drawn) [UM171, 4-N-[2-benzyl-7-(2-methyltetrazol-5-yl)-9H-pyrimid[4,5-b]indol-4-yl]cyclohexane-1,4-diamine], for which, in data set [3] (day 14, UM171 35 nM), the “growth rate of CD34+ cells, medium containing UM171 vs medium without” value is “significantly larger”. Further, the “total cell count and CD34+ cell count” value in data set [3] (day 14, UM171 35 nM added to PI3Ka20μM+TPOago0.1μM medium) is reported as “increased”. Also, in data set [4] (setting [11]), the “CD34+ cell count / growth rate of CD34+ cells” value is recorded as “markedly increased” and the “CD41+ cell count” value is “markedly decreased”. Also, the “differentiation into megakaryocyte progenitors and megakaryocytes” value in data set [4] (serum-free medium with PVA, PI3Ka and TPOago) is given as “inhibited”.
In the case of `O=C(Nc1nc(-c2cc(Cl)cs2)c(N2CCN(C3CCCCC3)CC2)s1)c1cnc(N2CCC(C(=O)O)CC2)c(Cl)c1` [avatrombopag], in [5], the “proliferation in the absence of TPO” value was “able to support proliferation” and the “cell proliferative effect in the absence of TPO” value is “small”.
`CCCOC(c1cccc(-c2csc(NC(=O)c3cc(Cl)c(C=C(C)C(=O)O)c(Cl)c3)n2)c1OC)C(C)(C)C` (stereo not drawn) [butyzamide, 3-[4-[[[4-[2-methoxy-3-(1-tert-butyl-2-oxapentan-1-yl)phenyl]thiazol-2-yl]amino]carbonyl]-2,6-dichlorophenyl]-2-methylpropenoic acid]: in data set [5], the “proliferation in the absence of TPO” value is “able to support proliferation” and the “cell proliferative effect in the absence of TPO” value is “marked cell proliferative effect”. Moreover, in data set [6], the “cell count on the seventh day relative to the first day (proliferation)” value is reported as “significant cell proliferation”. Moreover, the “growth rate of total cells and CD34+ cells, replacement of TPO” value in [7] is “can completely replace TPO”. In addition, the “GEmM colony formation potential, replacement of TPO” value in data set [8] is reported as “can completely replace TPO”. For the same compound, in data set [9], the “growth rate (total cells and CD34+ cells) relative to start of culture” value is given as “no increase in the cell count”.
On to `CC1=NN(c2ccc(C)c(C)c2)C(=O)/C1=N\Nc1cccc(-c2cccc(C(=O)O)c2)c1O` [eltrombopag], for which, in data set [6], the “cell death (cytotoxicity) in hematopoietic stem cells” value was “caused cell death”.
Take “RQIKIWFQNRRMKWKKSDGGYMDMS [PI3Ka, Tocris, product No. 1983]”: the “relative cell count (proliferation) after 3, 5 and 7 days” value in [1] is on record as “marked proliferation”. For the same compound, in [10], the “difference in number of total cells or CD34+ cells with or without SCF” value was “no significant difference”. For the same compound, the “growth rate (total cells and CD34+ cells) relative to start of culture” value in data set [9] is “no increase in the cell count”.
Regarding “SCF: stem cell factor, hematopoietic cell growth factor”, the “difference in number of total cells or CD34+ cells with or without SCF” value in [10] is “no statistically significant difference”.

(Values after patent US20230106769A1, “SERUM-FREE MEDIUM AND CULTURING METHOD SUITED FOR CULTURING BLOOD CELLS SUCH AS HUMAN HEMATOPOIETIC STEM CELLS” (The University of Tokyo, priority 2020, published 2023).)
